Measurements reported in patent US20100330003A1, “ORAL CARE PRODUCT AND METHODS OF USE AND MANUFACTURE THEREOF” (Colgate-Palmolive Company, priority 2008, published 2010).

System: S. sanguis
Assay: ammonia production by S. sanguis at pH 4.0 (Ammonia Assay kit)
Assay type: cell-based
Conditions: 5 millimolar amino acid, 0.1% sucrose, pH 4.0, 37° C., 30 minutes
Description: An overnight culture of S. sanguis is grown at 37° C. in trypticase soy broth (Becton Dickinson, Sparks, Md.). The culture is centrifuged at 5,000 rpm for 5 minutes at 1 milliliter at a time into preweighed tubes in order to accumulate approximately 5 milligrams of wet pellet weight. The pellet is then resuspended into 20 millimolar potassium phosphate buffer (JT Baker. Phillipsburg, N.J.), pH 4.0, to simulate a stressed environment for the bacterial cell where ammonia would be produced for survival. The final concentration is 5 milligram per milliliter. To this final concentration, a 5 millimolar final concentration of L-arginine, L-citrulline, or L-ornithine is added along with a 0.1% final concentration of sucrose (VWR, West Chester, Pa.). This mixture is then incubated at 37° C. in a shaking water bath for 30 minutes before ammonia production is determined.
In order to analyze for ammonia, an Ammonia Assay kit is used from Diagnostic Chemicals Limited (Oxford, Conn.). The intended use of this specific kit is for the in vitro quantification of ammonia in plasma, but the procedure is modified in order to determine and quantity the ammonia production in plaque and/or bacteria.

Row | SMILES | Ammonia (ppm) (Mean of 6 separate trials) | Ammonia (ppm) (Trial 1) | Ammonia (ppm) (Trial 2) | Ammonia (ppm) (Trial 3) | Ammonia (ppm) (Trial 4) | Ammonia (ppm) (Trial 5) | Ammonia (ppm) (Trial 6)
1 | NC(=O)NCCC[C@H](N)C(=O)O [L-Citrulline, L-citrulline] | 0.951 ppm | 0.185 ppm | 0.346 ppm | 0.332 ppm | 0.194 ppm | 0.226 ppm | 0.951 ppm
2 | NCCC[C@H](N)C(=O)O [L-Ornithine, L-ornithine] | 0.134 ppm | 0.185 ppm | 0.260 ppm | 0.047 ppm | 0.0 ppm | 0.181 ppm | 0.135 ppm
3 | N=C(N)NCCC[C@H](N)C(=O)O [L-Arginine, L-arginine] | 1.06 ppm | 0.509 ppm | 0.866 ppm | 2.20 ppm | 1.62 ppm | 0.5 ppm | 0.679 ppm
